{
  "source": "patent US20150190460A1",
  "about": "“OSTEOPONTIN PEPTIDE FRAGMENTS FOR USE IN SUPPRESSION OR PREVENTION OF TUMOR GROWTH” (FORSYTH DENTAL INFIRMARY FOR CHILDREN (D/B/A THE FORSYTH …, priority 2012, published 2015)",
  "key": {"[1]": {"test": "Competition ELISA for bovine OPN in plasma of mice fed with OPN", "assay_type": "in vivo", "conditions": "mice fed 50 mg of OPN over 10-30 minutes", "procedure": "In a previous experiment the inventors have detected osteopontin peptides in the plasma of mice fed with OPN using a competition ELISA for bovine OPN: the assay was designed to detect any peptides that can block interaction of intact bovine OPN with the polyclonal antibody used. Plasma from mice fed 50 mg of OPN over 10-30 minutes was analyzed using this ELISA. Peak antibody reactivity was detected at 1-4 hours after feeding, with the highest mean levels being close to 5000 ng/ml."}, "[2]": {"test_system": "275-3-2 murine ras-transformed fibroblast cells", "test": "Oral administration of osteopontin to 129B6F1 tumor-bearing mice", "assay_type": "in vivo", "conditions": "for size of the tumor: FIG. 1b", "procedure": "A bovine OPN preparation (Lacprodan®, Arla Foods Ingredients, Viby, Denmark) was dissolved in deionized water, filtered, and administered at final concentrations of 0.03, 0.12, or 0.3 mg/ml to 129B6F1 tumor-bearing mice starting either on the day of tumor cell inoculation (Day 0) or five days later (Day 5). The mice were initially inoculated with 5×10^4 mycoplasma-free 275-3-2 murine ras-transformed fibroblast cells (see Wu 2000). Tumor size was measured with calipers and monitored until the tumors reached 20% of the body weight of the animals, at which time the mice were sacrificed and tissue/plasma samples collected. Statistical significance was calculated using one-way ANOVA with Bonferroni post-test."}},
  "data": [
    {"substance": "OPN: bovine OPN preparation (Lacprodan®, Arla Foods Ingredients, Viby, Denmark)", "values": [
      {"measurement": "highest mean plasma levels (immunoreactive OPN peptides)", "setting": "[1]", "value": "~5000", "unit": "ng/mL"},
      {"measurement": "time of peak antibody reactivity in plasma after feeding", "setting": "[1]", "value": "1 to 4", "unit": "h"},
      {"measurement": "size of the tumor", "setting": "[2]; oral OPN 0.12 mg/ml started five days after tumor cell injection, at 15 days", "value": "statistically significant decrease"},
      {"measurement": "size of the tumor", "setting": "[2]; oral OPN 0.3 mg/ml started five days after tumor cell injection, at 17 days", "value": "statistically significant decrease"},
      {"measurement": "effect on the size of the tumors", "setting": "[2]; oral OPN in drinking water started at the time of tumor injection (Day 0), up to 17 days, FIG. 1A", "value": "no significant effect"},
      {"measurement": "most effective dose of OPN preparation", "setting": "[2]; oral dosing experiments, 0.03, 0.12, 0.3 mg/ml, highest dose used", "value": 0.3, "unit": "mg/mL"},
      {"measurement": "effect of treatment on mouse weight", "setting": "[2]; oral, about 1.5 mg protein administered", "value": "nor is there any effect"}
    ]}
  ]
}
